Results: article PMC9751013 (European Journal of Medicinal Chemistry, 2022)

Key:
[1] = biological target: T1, SARS-CoV-2 M^pro (Severe acute respiratory syndrome coronavirus 2, UniProt P0DTD1); assay type: biochemical
[2] = biological target: hCatB (Homo sapiens, UniProt P07858); experiment: hCatB enzyme inhibition assay; assay type: biochemical; details: hCatB vs hCatL
[3] = biological target: SARS-CoV-2 papain-like protease (PL^pro) (Severe acute respiratory syndrome coronavirus 2, UniProt P0DTD1); experiment: SARS-CoV-2 PLpro enzyme inhibition screening; assay type: biochemical
[4] = biological target: T2, dengue virus NS2B/NS3 serine protease (Dengue virus type 2, UniProt P29990); experiment: Dengue virus NS2B/NS3 protease inhibition screening; assay type: biochemical, dengue virus 2
T2 sequence (P29990 1476-1653 limits assumed): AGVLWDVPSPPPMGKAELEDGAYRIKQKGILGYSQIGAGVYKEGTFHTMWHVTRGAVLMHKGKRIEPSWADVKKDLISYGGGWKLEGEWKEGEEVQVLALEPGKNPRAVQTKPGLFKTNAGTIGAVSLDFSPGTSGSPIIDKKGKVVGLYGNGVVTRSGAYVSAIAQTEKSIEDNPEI

[5] = biological target: T1, SARS-CoV-2 M^pro; assay type: biochemical; details: inhibitor at 10-fold IC50, 60 min incubation, 25 h of dialysis

Row | Structure (SMILES) | binding affinity to SARS-CoV-2 M^pro, fold lower with respect to SPR38 [1] | Ki hCatB fold higher compared to Ki hCatL [2] | inhibition of SARS-CoV-2 PL^pro at 100 μM [3] | inhibitory activity against dengue virus NS2B/NS3 serine protease at 100 μM [4] | enzymatic activity of M^pro recovered after dialysis [5]
1 | CCC[C@H](NC(=O)OCc1ccccc1)C(=O)N[C@H](/C=C/C(C)=O)C[C@@H]1CCNC1=O [SPR35, Benzyl ((S)-1-oxo-1-(((S,E)-5-oxo-1-((S)-2-oxopyrrolidin-3-yl)hex-3-en-2-yl)amino)pentan-2-yl)carbamate] | ~7 fold | – | – | – | –
2 | CCCC[C@H](NC(=O)OCc1ccccc1)C(=O)N[C@H](/C=C/C(C)=O)C[C@@H]1CCNC1=O [SPR38, Benzyl ((S)-1-oxo-1-(((S,E)-5-oxo-1-((S)-2-oxopyrrolidin-3-yl)hex-3-en-2-yl)amino)hexan-2-yl)carbamate] | – | ~2 fold | no inhibition | no inhibitory activity | –
3 | CC(=O)/C=C/[C@H](C[C@@H]1CCNC1=O)NC(=O)[C@H](CC1CC1)NC(=O)OCc1ccccc1 [SPR39, Benzyl ((S)-3-cyclopropyl-1-oxo-1-(((S,E)-5-oxo-1-((S)-2-oxopyrrolidin-3-yl)hex-3-en-2-yl)amino)propan-2-yl)carbamate] | – | ~6 fold | no inhibition | no inhibitory activity | did not show recovering enzymatic activities
4 | CC(=O)/C=C/[C@H](C[C@@H]1CCNC1=O)NC(=O)[C@H](CC1CCCCC1)NC(=O)OCc1ccccc1 [SPR41, Benzyl ((S)-3-cyclohexyl-1-oxo-1-(((S,E)-5-oxo-1-((S)-2-oxopyrrolidin-3-yl)hex-3-en-2-yl)amino)propan-2-yl)carbamate] | – | – | no inhibition | no inhibitory activity | did not show recovering enzymatic activities
